Reference: patent US9278990B2, “Substituted nucleotide analogs” (priority 2010, dated 2016)

Tested on: Huh-7 cells containing the self-replicating, subgenomic HCV replicon
Experiment: HCV replicon assay (luciferase reporter)
Format: cell-based
Settings: Hepatitis C virus, Huh-7, 72 h
Method: Huh-7 cells containing the self-replicating, subgenomic HCV replicon with a stable luciferase (LUC) reporter were cultured in Dulbecco's modified Eagle's medium (DMEM) containing 2 mM L-glutamine and supplemented with 10% heat-inactivated fetal bovine serum (FBS), 1% penicillin-streptomyocin, 1% nonessential amino acids, and 0.5 mg/mL G418.
On the first day, 5,000 HCV replicon cells were plated per well in a 96-well plate. On the following day, test compounds were solubilized in 100% DMSO to 100× the desired final testing concentration. Each compound was then serially diluted (1:3) up to 9 different concentrations. Compounds in 100% DMSO are reduced to 10% DMSO by diluting 1:10 in cell culture media. The compounds were diluted to 10% DMSO with cell culture media, which were used to dose the HCV replicon cells in 96-well format. The final DMSO concentration was 1%. The HCV replicon cells were incubated at 37° C. for 72 hours. At 72 hours, cells were processed when the cells are still subconfluent. Compounds that reduce the LUC signal are determined by Bright-Glo Luciferase Assay (Promega, Madison, Wis.). Percent Inhibition was determined for each compound concentration in relation to the control cells (untreated HCV replicon) to calculate the EC50.

| SMILES | EC50 [µM] |
| --- | --- |
| CC(C)OC(=O)[C@H](C)N[P@](=S)(OC[C@H]1O[C@@H](n2ccc(=O)[nH]c2=O)[C@](C)(O)[C@@H]1O)Oc1ccccc1 | < 1 |
| COc1nc(N)nc2c1ncn2[C@@H]1O[C@H](COP(=S)(N[C@@H](C)C(=O)OCC(C)(C)C)Oc2ccccc2)[C@@H](O)[C@@]1(C)O (some centres unmarked) | < 1 |
| CC(C)OC(=O)[C@H](C)NP(=S)(OC[C@H]1O[C@@H](n2ccc(=O)[nH]c2=O)[C@](C)(O)[C@@H]1O)Oc1cccc2ccccc12 (some centres unmarked) | < 1 |
| CC(C)OC(=O)[C@H](C)NP(=S)(OC[C@H]1O[C@@H](n2ccc(=O)[nH]c2=O)[C@](C)(O)[C@@H]1OC(=O)C(C)C)Oc1ccccc1 (some centres unmarked) | < 1 |
| C[C@H](NP(=S)(OC[C@H]1O[C@@H](n2cnc3c(=O)[nH]c(N)nc32)[C@](C)(O)[C@@H]1O)Oc1ccccc1)C(=O)OC1CCCCC1 (some centres unmarked) | < 1 |
| CC(C)OC(=O)[C@H](C)NP(=S)(OC[C@H]1O[C@@H](n2ccc(=O)[nH]c2=O)[C@](C)(O)[C@@H]1O)Oc1ccccc1 (some centres unmarked) | < 1 |
| CC(C)OC(=O)[C@H](C)NP(=S)(OC[C@H]1O[C@@H](n2ccc(=O)[nH]c2=O)[C@](C)(O)[C@@H]1O)Oc1ccc(Cl)cc1 (some centres unmarked) | < 1 |
| CC(C)OC(=O)[C@H](C)NP(=S)(OC[C@H]1O[C@@H](n2ccc(=O)[nH]c2=O)[C@](C)(O)[C@@H]1O)Oc1cccc2ncccc12 (some centres unmarked) | < 1 |
| C=CCNc1nc(N)nc2c1ncn2[C@@H]1O[C@H](COP(=S)(N[C@@H](C)C(=O)OC(C)C)Oc2ccccc2)[C@@H](O)[C@@]1(C)O (some centres unmarked) | < 1 |
| C[C@H](NP(=S)(OC[C@H]1O[C@@H](n2cnc3c(=O)[nH]c(N)nc32)[C@](C)(F)[C@@H]1O)Oc1ccccc1)C(=O)OCC(C)(C)C (some centres unmarked) | < 1 |
| C[C@H](NP(=S)(OC[C@@]1(N=[N+]=[N-])O[C@@H](n2ccc(=O)[nH]c2=O)[C@H](O)[C@@H]1O)Oc1ccccc1)C(=O)OCC(C)(C)C (some centres unmarked) | 10 to 100 |
| CC(C)OC(=O)CNP(=S)(OC[C@H]1O[C@@H](n2ccc(=O)[nH]c2=O)[C@](C)(O)[C@@H]1O)Oc1ccccc1 (some centres unmarked) | 1 to 10 |
| CC(C)OC(=O)[C@H](C)NP(=S)(OC[C@@]1(N=[N+]=[N-])O[C@@H](n2ccc(=O)[nH]c2=O)[C@H](O)[C@@H]1O)Oc1ccccc1 (some centres unmarked) | 10 to 100 |
| CC(C)OC(=O)[C@H](C)NP(=S)(OC[C@H]1O[C@@H](n2cnc3c(N)ncnc32)[C@](C)(O)[C@@H]1O)Oc1cccc2ccccc12 (some centres unmarked) | < 1 |
| CC(C)OC(=O)[C@H](C)NP(=S)(OC[C@H]1O[C@@H](n2ccc(=O)[nH]c2=O)[C@](C)(O)[C@@H]1O)Oc1ccc(F)c(Cl)c1 (some centres unmarked) | < 1 |
| COC(=O)[C@H](C)NP(=S)(OC[C@H]1O[C@@H](n2ccc(=O)[nH]c2=O)[C@](C)(O)[C@@H]1O)Oc1cccc2ccccc12 (some centres unmarked) | < 1 |
| [2H]C([2H])(OP(=S)(N[C@@H](C)C(=O)OC(C)C)Oc1ccccc1)[C@H]1O[C@@H](n2ccc(=O)[nH]c2=O)[C@](C)(O)[C@@H]1O (some centres unmarked) | < 1 |
| C[C@H](NP(=S)(OC[C@H]1O[C@@H](n2ccc(=O)[nH]c2=O)[C@](C)(O)[C@@H]1O)Oc1cccc2ccccc12)C(=O)OC1CCCCC1 (some centres unmarked) | < 1 |
| COc1nc(N)nc2c1ncn2[C@@H]1O[C@H](COP(=S)(N[C@@H](C)C(=O)OC(C)C)Oc2ccccc2)[C@@H](O)[C@@]1(C)O (some centres unmarked) | < 1 |
| CCC[C@H](NP(=S)(OC[C@H]1O[C@@H](n2ccc(=O)[nH]c2=O)[C@](C)(O)[C@@H]1O)Oc1ccccc1)C(=O)OC(C)C (some centres unmarked) | < 1 |
| CC(C)OC(=O)C(C)NP(=S)(OC[C@@]1(N=[N+]=[N-])O[C@@H](n2ccc(=O)[nH]c2=O)[C@H](O)[C@@H]1O)Oc1ccccc1 (some centres unmarked) | 10 to 100 |
| C[C@H](NP(=S)(OC[C@H]1O[C@@H](n2cnc3c(N)ncnc32)[C@](C)(O)[C@@H]1O)Oc1ccccc1)C(=O)OCC(C)(C)C (some centres unmarked) | < 1 |
| COc1nc(N)nc2c1ncn2[C@@H]1O[C@H](COP(=S)(N[C@@H](C)C(=O)OC2CCCCC2)Oc2ccccc2)[C@@H](O)[C@@]1(C)O (some centres unmarked) | < 1 |
| CC(C)OC(=O)[C@H](C)NP(=S)(OC[C@H]1O[C@@H](n2cnc3c(Cl)nc(N)nc32)[C@](C)(O)[C@@H]1O)Oc1ccccc1 (some centres unmarked) | < 1 |
| CC(C)OC(=O)[C@H](Cc1ccccc1)NP(=S)(OC[C@H]1O[C@@H](n2ccc(=O)[nH]c2=O)[C@](C)(O)[C@@H]1O)Oc1ccccc1 (some centres unmarked) | 1 to 10 |
| COc1nc(N)nc2c1ncn2[C@@H]1O[C@H](COP(=S)(N[C@@H](C)C(=O)OC2CCCCC2)Oc2cccc3ccccc23)[C@@H](O)[C@@]1(C)O (some centres unmarked) | < 1 |
| CC(C)OC(=O)[C@H](C)NP(=S)(OC[C@H]1O[C@@H](n2ccc(=O)[nH]c2=O)[C@](C)(O)[C@@H]1O)Oc1cccnc1 (some centres unmarked) | < 1 |

| SMILES | EC50 [µM] |
| --- | --- |
| Cc1ccccc1OP(=S)(N[C@@H](C)C(=O)OC(C)C)OC[C@H]1O[C@@H](n2ccc(=O)[nH]c2=O)[C@](C)(O)[C@@H]1O (some centres unmarked) | < 1 |
| C[C@H](NP(=S)(OC[C@H]1O[C@@H](n2cnc3c(=O)[nH]c(N)nc32)[C@](C)(O)[C@@H]1O)Oc1ccccc1)C(=O)OCC(C)(C)C (some centres unmarked) | < 1 |
| CC(C)OC(=O)[C@H](C)NP(=S)(OC[C@H]1O[C@@H](n2cnc3c(=O)[nH]c(N)nc32)[C@](C)(O)[C@@H]1O)Oc1ccccc1 (some centres unmarked) | < 1 |
| C[C@H](NP(=S)(OC[C@H]1O[C@@H](n2ccc(=O)[nH]c2=O)[C@](C)(F)[C@@H]1O)Oc1ccccc1)C(=O)OC1CCCCC1 (some centres unmarked) | < 1 |
| COc1nc(N)nc2c1ncn2[C@@H]1O[C@H](COP(=S)(NC(C)C(=O)OC(C)C)Oc2ccccc2)C(O)C1(C)F (some centres unmarked) | < 1 |
| CCC(=O)O[C@@H]1[C@@H](COP(=S)(N[C@@H](C)C(=O)OC(C)C)Oc2ccccc2)O[C@@H](n2ccc(=O)[nH]c2=O)[C@]1(C)O (some centres unmarked) | < 1 |
| CC(C)OC(=O)[C@H](C)NP(=S)(OC[C@H]1O[C@@H](n2ccc(=O)[nH]c2=O)[C@](C)(O)[C@@H]1O)Oc1ccc(F)cc1 (some centres unmarked) | < 1 |
| CCC(=O)O[C@@H]1[C@@H](COP(=S)(N[C@@H](C)C(=O)OC(C)C)Oc2ccccc2)O[C@@H](n2ccc(=O)[nH]c2=O)[C@]1(C)OC(=O)CC (some centres unmarked) | < 1 |
| CC(C)OC(=O)C(C)NP(=S)(OC[C@H]1O[C@@H](n2cnc3c(=O)[nH]c(N)nc32)C(C)(O)C1O)Oc1ccccc1 (some centres unmarked) | < 1 |
| C[C@H](NP(=S)(OC[C@H]1O[C@@H](n2ccc(=O)[nH]c2=O)[C@](C)(O)[C@@H]1O)Oc1ccccc1)C(=O)OC1CCCCC1 (some centres unmarked) | < 1 |
| CC(C)OC(=O)[C@H](C)NP(=S)(OC[C@H]1O[C@@H](n2ccc(=O)[nH]c2=O)[C@](C)(F)[C@@H]1O)Oc1ccccc1 (some centres unmarked) | 1 to 10 |
| COc1nc(N)nc2c1ncn2[C@@H]1O[C@H](COP(=S)(NC(C)C(=O)OC(C)C)Oc2ccccc2)C(O)C1(C)O (some centres unmarked) | < 1 |
| CC(C)OC(=O)[C@H](C)NP(=S)(OC[C@H]1O[C@@H](n2cnc3c(N)nc(N)nc32)[C@](C)(O)[C@@H]1O)Oc1ccccc1 (some centres unmarked) | < 1 |
| Cc1ccc(OP(=S)(N[C@@H](C)C(=O)OC(C)C)OC[C@H]2O[C@@H](n3ccc(=O)[nH]c3=O)[C@](C)(O)[C@@H]2O)cc1 (some centres unmarked) | < 1 |
| COc1nc(N)nc2c1ncn2[C@@H]1O[C@H](COP(=S)(N[C@@H](C)C(=O)OCC(C)(C)C)Oc2cccc3ccccc23)[C@@H](O)[C@@]1(C)O (some centres unmarked) | < 1 |
| CC(C)OC(=O)[C@H](C)N[P@@](=S)(OC[C@H]1O[C@@H](n2ccc(=O)[nH]c2=O)[C@](C)(O)[C@@H]1O)Oc1ccccc1 | < 1 |
| C[C@H](NP(=S)(OC[C@H]1O[C@@H](n2ccc(=O)[nH]c2=O)[C@](C)(O)[C@@H]1O)Oc1ccccc1)C(=O)OCC(C)(C)C (some centres unmarked) | < 1 |
| CC(C)OC(=O)[C@H](C)NP(=S)(OC[C@H]1O[C@@H](n2ccc(=O)[nH]c2=O)[C@](C)(O)[C@@H]1O)Oc1ccccc1Cl (some centres unmarked) | < 1 |
| [2H]C([2H])(OP(=S)(N[C@@H](C)C(=O)OC(C)C)Oc1ccccc1)[C@H]1O[C@@H](n2ccc(=O)[nH]c2=O)[C@](C)(O)[C@@H]1OC(C)=O (some centres unmarked) | < 1 |
| CC(C)C[C@H](NP(=S)(OC[C@H]1O[C@@H](n2ccc(=O)[nH]c2=O)[C@](C)(O)[C@@H]1O)Oc1ccccc1)C(=O)OC(C)C (some centres unmarked) | 1 to 10 |
| C[C@H](NP(=S)(OC[C@H]1O[C@@H](n2ccc(=O)[nH]c2=O)[C@](C)(O)[C@@H]1O)Oc1cccc2ccccc12)C(=O)OCC(C)(C)C (some centres unmarked) | < 1 |
| CC(C)OC(=O)[C@@H](NP(=S)(OC[C@H]1O[C@@H](n2ccc(=O)[nH]c2=O)[C@](C)(O)[C@@H]1O)Oc1ccccc1)C(C)C (some centres unmarked) | 10 to 100 |
| CC(C)OC(=O)[C@H](C)NP(=S)(OC[C@H]1O[C@@H](n2cnc3c(NC4CC4)nc(N)nc32)[C@](C)(O)[C@@H]1O)Oc1ccccc1 (some centres unmarked) | < 1 |
| CC[C@H](NP(=S)(OC[C@H]1O[C@@H](n2ccc(=O)[nH]c2=O)[C@](C)(O)[C@@H]1O)Oc1ccccc1)C(=O)OC(C)C (some centres unmarked) | < 1 |
| COc1nc(N)nc2c1ncn2[C@@H]1O[C@H](COP(=S)(N[C@@H](C)C(=O)OC(C)C)Oc2ccccc2)[C@@H](O)[C@@]1(C)F (some centres unmarked) | < 1 |
| C[C@H](NP(=S)(OC[C@H]1O[C@@H](n2ccc(=O)[nH]c2=O)[C@](C)(F)[C@@H]1O)Oc1ccccc1)C(=O)OCC(C)(C)C (some centres unmarked) | < 1 |
